Biological target: T1, Induced myeloid leukemia cell differentiation protein Mcl-1 [171-327] (Homo sapiens, UniProt Q07820)
T1 construct: 171-327
Assay: AlphaLISA Assay
Method: The AlphaLISA assay was performed in a 384-well Proxiplate in a total volume of […]. The reaction mixture contained 0.0625 nM 6× His-Mcl-1 (171-327), 0.0625 nM biotinylated-Bim peptide, 10 μg/mL AlphaLISA anti-6×His-AlphaLISA acceptor beads, 40 μg/mL AlphaScreen streptavidin donor beads, and serially diluted test compounds in the binding buffer (20 mM Hepes, pH 7.5 (Teknova H1035); 150 mM NaCl (Promega V4221); 0.002% Brij 35 (Thermo Scientific 20150); 1 mM Dithiothreitol (DTT) Solution (Affymetrix 70726); 0.01% BSA (BioLabs B9000S)). 1,000× test compounds were pre-spotted onto 384-well Proxiplate (Labcyte Echo) by Echo 555 Liquid Handler (Labcyte Inc., San Jose, Calif.) followed by incubation of 5 μl Mcl-1(171-327) for 1 hour. Then 5 μL Bim (51-76) was added and incubated for 2 hours. Five μL AlphaLISA anti-6His-AlphaLISA acceptor beads were then added for 1 hour followed by addition of 5 μL AlphaScreen streptavidin donor beads for 1 hour. The reaction plates were then read on an Envision multimode reader (PerkinElmer) using AlphaScreen settings.

T1 sequence (Q07820 171-327): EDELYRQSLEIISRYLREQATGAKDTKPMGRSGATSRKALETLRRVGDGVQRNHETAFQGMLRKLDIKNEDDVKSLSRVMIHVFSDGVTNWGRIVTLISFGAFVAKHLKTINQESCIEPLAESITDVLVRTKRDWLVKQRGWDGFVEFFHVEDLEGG

Row | IC50 [pM] | Structure (SMILES)
1 | 153 | CO[C@H]1/C=C/C[C@H](C)C[S@@](=O)(NC(=O)c2cc3n(c2F)CCOC3)=NC(=O)c2ccc3c(c2)N(C[C@@H]2CC[C@H]21)C[C@@]1(CCCc2cc(Cl)ccc21)CO3 [US10988451, Example 174]
2 | 30 | C[C@@H]1[C@@H](C)C/C=C/[C@H](O)[C@@H]2CC[C@H]2CN2C[C@@]3(CCCc4cc(Cl)ccc43)COc3ccc(cc32)C(=O)N=[S@]1(=O)NC(=O)c1cc2n(c1)C[C@H](CN1CCN3CCOC[C@H]3C1)OC2 [US10988451, Example 229]
3 | 121 | CO[C@H]1/C=C/C[C@H](C)C[S@@](=O)(NC(=O)C2CC(OC(F)F)C2)=NC(=O)c2ccc3c(c2)N(C[C@@H]2CC[C@H]21)C[C@@]1(CCCc2cc(Cl)ccc21)CO3 (stereo partly drawn) [US10988451, Example 431]

Reference: BindingDB's records for patent US10988451 (Gilead Sciences, 2021)
